# Several values for one entry are separate records, joined by “and”; a condition that tells them apart may be missing. Equal values may be shown once.
# Tested on: microgreens
# Assay: Radish microgreens growth under controlled pH 5, 1% solutions (Example 2)
# Format: in vivo
# Conditions: for germination rate / root hair development: Day 2; for Plant dry weight: harvest Day 8, dried 3 days
# Experimental: The biostimulant effect of a PBC under controlled pH and composition conditions was investigated. Particularly, a second batch of testing was performed to verify that biostimulant effect observed in Example 1 was not an artifact of differing pH or composition. In this set, samples having a controlled yet differing compositions were compared. The first sample set comprised the sugar sucrose while the second sample comprised citric acid. Citric acid was reported to promote seed germination, all under the same pH. Therefore, solutions of 1% citric acid, sucrose, and a PBC were prepared and adjusted to a pH of 5. Two pots were filled with 150 g of each solution. About 200 seeds were placed on top of each soaked growing mats. This second batch was left indoors at room temperature for 8 days.
# Microgreens were harvested on Day 8. They were then dried for 3 days, and the dry weights were recorded.
# [1] = 1% solution, pH 5, harvest Day 8
smiles,measurement,setting,value
"O=C(O)CC(O)(CC(=O)O)C(=O)O [Citric Acid, citric acid]",germination rate,"1% solution, pH 5",100%
same,Length of Root,[1],0.82 ± 0.25 cm and 0.71 ± 0.22 cm
same,Plant dry weight,"1% solution, pH 5",1.99 g and 1.81 g
same,overall growth at harvest (Table 2 summary),"1 wt. %, Day 8",least overall growth in every parameter considered
same,root hair development,,minimal root hair development
same,growth observation,Day 4,stunted growth with no stem or root hair development
same,growth observation,Day 7,no stem development and poor overall growth
"OC[C@H]1O[C@@](CO)(O[C@H]2O[C@H](CO)[C@@H](O)[C@H](O)[C@H]2O)[C@@H](O)[C@@H]1O [Sucrose, sucrose]",germination rate,"1% solution, pH 5",99%
same,Length of Root,[1],2.61 ± 0.43 cm and 2.49 ± 1.0 cm
same,Length of Stem,[1],3.86 ± 1.10 cm and 4.27 ± 1.03 cm
same,Plant dry weight,"1% solution, pH 5",3.0 g and 2.29 g
same,root hair development,,most root hair development
same,leaf development,Day 3,most leaf development
same,growth observation,Day 7,healthy leaf growth

# — patent US20260041089A1, “PLANT BIOSTIMULANT AND METHODS OF MAKING AND USING SAME” (Solugen, Inc., priority 2022, published 2026)
